The record followed here is patent US8247420B2, “Compositions, synthesis, and methods of using quinolinone based atypical antipsychotic agents” (Reviva Pharmaceuticals, Inc., priority 2007, dated 2012).

For experiment [1], the target named is Serotonin, 5HT2A (human) (Homo sapiens, UniProt P28223). The experiment can be described thus: Serotonin, 5HT2A (human) radioligand binding assay ([3H]-Ketanserin). The following applies: human cortex. As to the method:
The reactions were carried out in 50 mM TRIS-HCl (pH 7.6) at room temperature for 90 minutes. The reaction was terminated by rapid vacuum filtration onto glass fiber filters. Radioactivity trapped onto the filters was determined and compared to control values in order to ascertain any interactions of test compounds with the serotonin-5HT2A binding site (Literature Reference: Leysen, J. E. et al. Mol. Pharmacol. 1982, 21, 301-314; Martin, G. R. and Humphrey, P. P. A. Neuropharmacol. 1994, 33(3/4), 261-273.)
(§1) The radioligand binding assays for dopamine-D2S and serotonin-5HT1A were carried out at six different concentrations and the test concentrations were 1 nM, 5 nM, 10 nm 50 nM, 100 nM and 500 nM. The radioligand binding assays for serotonin-5HT2A were carried out at seven different concentrations and the test concentrations were 5 nM, 10 nM, 50 nM, 100 nM, 500 nM, 1 uM, and 300 uM.

The target of experiment [2] is T1, Dopamine, D2S (human recombinant) (Homo sapiens, UniProt P14416).
T1 construct: expressed in transfected cells; host or cells: CHO cells
T1 sequence (P14416 1-414 isoform P14416-2): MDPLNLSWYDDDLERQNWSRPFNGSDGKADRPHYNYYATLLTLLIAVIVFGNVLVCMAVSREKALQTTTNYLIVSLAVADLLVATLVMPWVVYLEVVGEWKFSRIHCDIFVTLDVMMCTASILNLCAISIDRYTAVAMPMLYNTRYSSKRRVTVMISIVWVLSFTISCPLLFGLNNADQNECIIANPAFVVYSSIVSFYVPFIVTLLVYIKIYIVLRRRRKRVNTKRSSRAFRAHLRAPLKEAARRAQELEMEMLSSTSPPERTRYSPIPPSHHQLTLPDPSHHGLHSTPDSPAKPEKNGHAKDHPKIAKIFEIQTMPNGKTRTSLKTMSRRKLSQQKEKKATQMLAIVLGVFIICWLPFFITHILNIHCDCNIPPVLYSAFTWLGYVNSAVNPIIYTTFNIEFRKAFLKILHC
The experiment is described as follows: Dopamine, D2S (human recombinant) radioligand binding assay ([3H]Spiperone). The following applies: human recombinant in CHO cells. On the procedure: The reactions were carried out in 50 mM TRIS-HCl (pH 7.4) containing 120 mM NaCl, 5 mM KCl, 5 mM MgCl2, 1 mM EDTA for 60 minutes at 25 C. The reaction was terminated by rapid vacuum filtration onto glass fiber filters. Radioactivity trapped onto the filters was determined and compared to control values in order to ascertain any interactions of test compounds with the cloned dopamine-D2 short binding site (Literature Reference: Jarvis, K. R. et al. Journal of Receptor Research 1993, 13(1-4), 573-590; Gundlach, A. L. et al. Life Sciences 1984, 35, 1981-1988.)
as §1

The target in experiment [3] is T2, Serotonin, 5HT1A (human recombinant) (Homo sapiens, UniProt P08908).
T2 construct: expressed in transfected cells; host or cells: HEK-293 cells
T2 sequence (P08908 1-422): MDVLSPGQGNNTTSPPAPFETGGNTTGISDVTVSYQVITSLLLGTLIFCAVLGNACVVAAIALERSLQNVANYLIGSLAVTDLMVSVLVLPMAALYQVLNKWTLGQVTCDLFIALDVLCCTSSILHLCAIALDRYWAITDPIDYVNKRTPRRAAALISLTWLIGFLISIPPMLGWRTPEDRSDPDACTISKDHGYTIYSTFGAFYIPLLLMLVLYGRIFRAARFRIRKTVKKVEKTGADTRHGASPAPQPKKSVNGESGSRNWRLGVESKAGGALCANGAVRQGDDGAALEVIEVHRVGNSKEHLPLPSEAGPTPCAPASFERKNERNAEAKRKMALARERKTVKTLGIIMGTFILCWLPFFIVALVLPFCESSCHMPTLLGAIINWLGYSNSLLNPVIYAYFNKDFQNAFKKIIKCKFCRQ
The experiment can be described thus: Serotonin, 5HT1A (human recombinant) radioligand binding assay ([3H]-8-OH-DPAT). The conditions noted are these: human recombinant in HEK-293 cells. On the procedure: The reactions were carried out in 50 mM TRIS-HCl (pH 7.4) containing 10 mM MgSO4, 0.5 mM EDTA and 0.1% Ascorbic acid at room temperature for 1 hour. The reaction was terminated by rapid vacuum filtration onto glass fiber filters. Radioactivity trapped onto the filters was determined and compared to control values in order to ascertain any interactions of test compounds with the cloned serotonin-5HT1A binding site (Literature Reference: Hoyer, D. et al. Eur. Journal Pharmacol. 1985, 118, 13-23; Schoeffter, P. and Hoyer, D. Naunyn-Schmiedeberg's Arch. Pharmac. 1989, 340, 135-138)
as §1

Where a name gives a salt, the structure may show the parent alone.

Sequence of Serotonin, 5HT2A (human) (P28223 whole entry): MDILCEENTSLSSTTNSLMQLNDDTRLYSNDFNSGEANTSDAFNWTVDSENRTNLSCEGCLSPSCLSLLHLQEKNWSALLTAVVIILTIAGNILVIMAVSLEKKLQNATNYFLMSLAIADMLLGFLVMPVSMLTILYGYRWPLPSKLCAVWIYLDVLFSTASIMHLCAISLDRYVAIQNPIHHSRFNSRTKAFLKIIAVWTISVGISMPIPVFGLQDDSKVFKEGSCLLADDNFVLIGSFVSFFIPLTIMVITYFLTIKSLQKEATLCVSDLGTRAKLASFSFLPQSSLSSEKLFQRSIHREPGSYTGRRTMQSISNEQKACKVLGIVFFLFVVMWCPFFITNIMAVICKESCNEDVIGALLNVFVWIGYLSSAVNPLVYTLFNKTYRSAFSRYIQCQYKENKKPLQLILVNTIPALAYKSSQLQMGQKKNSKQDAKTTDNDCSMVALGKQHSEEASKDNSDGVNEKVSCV

Regarding `CCOC(=O)CCCOc1ccccc1N1CCN(CCCCOc2ccc3c(c2)NC(=O)CC3)CC1` [Compound 9a, Ethyl 4-(2-(4-(4-(2-oxo-1,2,3,4-tetrahydroquinolin-7-yloxy)butyl)piperazin-1-yl)phenoxy)butanoat hydrochloride], the IC50 – broadly, the concentration at which inhibition is half-maximal – is 456 nM in experiment [1], 5.83 nM in experiment [2] and 6.61 nM in experiment [3]. Moreover, the Ki – broadly, a dissociation constant, usually derived from enzyme kinetics or from competition with a known ligand – in experiment [1] was 239 nM; in experiment [2], 1.69 nM; in experiment [3], 3.93 nM.
With `O=C1CCc2ccc(C(=O)OCCCN3CCN(c4cccc(Cl)c4Cl)CC3)cc2N1` [Compound 24b, 3-(4-(2,3-Dichlorophenyl)piperazin-1-yl)propyl 2-oxo-1,2,3,4-tetrahydroquinoline-7-carboxylate hydrochloride], the IC50 was 253 nM in experiment [1], 72.9 nM in experiment [2] and 28 nM in experiment [3]. Moreover, the Ki in experiment [1] was 147 nM; in experiment [2], 17 nM; in experiment [3], 16 nM.
As for `O=C1CCc2ccc(COC(=O)CCCN3CCN(c4cccc(Cl)c4Cl)CC3)cc2N1` [Compound 39d, (2-Oxo-1,2,3,4-tetrahydroquinolin-7-yl)methyl 4-(4-(2,3-dichlorophenyl)piperazin-1-yl)butanoate], the IC50 stood at 313 nM in experiment [1], 54.7 nM in experiment [2] and 85 nM in experiment [3]. The Ki in experiment [1] came out at 171 nM; in experiment [2], 12.8 nM; in experiment [3] it was 48.5 nM.
